# Reference: ChEMBL document CHEMBL2440076, “New triarylpyrazoles as broad-spectrum anticancer agents: design, synthesis, and biological evaluation” (Eur J Med Chem, 2013)
# How the values were obtained:
# Format in all cases: functional
# [1] = test system: SF-295; test: Growth inhibition of human SF295 cells assessed as cell growth at 5X10'-8 M after 48 hrs by sulforhodamine B assay; conditions: SF-295, 48 h, read-out: Activity
# [2] = test system: 786-0; test: Growth inhibition of human 786-0 cells assessed as cell growth at 5X10'-9 M after 48 hrs by sulforhodamine B assay; conditions: 786-0, 48 h, read-out: Activity
# [3] = test system: UO-31; test: Growth inhibition of human UO31 cells assessed as cell growth at 5X10'-9 M after 48 hrs by sulforhodamine B assay; conditions: UO-31, 48 h, read-out: Activity
# [4] = test system: OVCAR-4; test: Growth inhibition of human OVCAR4 cells assessed as cell growth at 5X10'-5 M after 48 hrs by sulforhodamine B assay; conditions: OVCAR-4, 48 h, read-out: Activity
# [5] = test system: DU-145; test: Growth inhibition of human DU145 cells assessed as cell growth at 5X10'-5 M after 48 hrs by sulforhodamine B assay; conditions: DU-145, 48 h, read-out: Activity
# [6] = test system: A498; test: Growth inhibition of human A498 cells assessed as cell growth at 5X10'-6 M after 48 hrs by sulforhodamine B assay; conditions: A498, 48 h, read-out: Activity
# [7] = test system: SF-268; test: Growth inhibition of human SF268 cells assessed as cell growth at 5X10'-6 M after 48 hrs by sulforhodamine B assay; conditions: SF-268, 48 h, read-out: Activity
# [8] = test system: HT-29; test: Growth inhibition of human HT-29 cells assessed as cell growth at 5X10'-5 M after 48 hrs by sulforhodamine B assay; conditions: HT-29, 48 h, read-out: Activity
# [9] = test system: RPMI-8226; test: Growth inhibition of human RPMI8226 cells assessed as cell growth at 5X10'-5 M after 48 hrs by sulforhodamine B assay; conditions: RPMI-8226, 48 h, read-out: Activity
# [10] = test system: SF-539; test: Growth inhibition of human SF539 cells assessed as cell growth at 5X10'-8 M after 48 hrs by sulforhodamine B assay; conditions: SF-539, 48 h, read-out: Activity
# [11] = test system: KM12; test: Growth inhibition of human KM12 cells assessed as cell growth at 5X10'-7 M after 48 hrs by sulforhodamine B assay; conditions: KM12, 48 h, read-out: Activity
# [12] = test system: A498; test: Growth inhibition of human A498 cells assessed as cell growth at 5X10'-9 M after 48 hrs by sulforhodamine B assay; conditions: A498, 48 h, read-out: Activity
# [13] = test system: KM12; test: Growth inhibition of human KM12 cells assessed as cell growth at 5X10'-5 M after 48 hrs by sulforhodamine B assay; conditions: KM12, 48 h, read-out: Activity
# [14] = test system: SF-268; test: Growth inhibition of human SF268 cells assessed as cell growth at 5X10'-9 M after 48 hrs by sulforhodamine B assay; conditions: SF-268, 48 h, read-out: Activity
# [15] = test system: HOP-62; test: Growth inhibition of human HOP62 cells assessed as cell growth at 5X10'-7 M after 48 hrs by sulforhodamine B assay; conditions: HOP-62, 48 h, read-out: Activity
# [16] = test system: HCT-15; test: Growth inhibition of human HCT15 cells assessed as cell growth at 5X10'-9 M after 48 hrs by sulforhodamine B assay; conditions: HCT-15, 48 h, read-out: Activity
# [17] = test system: BT-549; test: Growth inhibition of human BT549 cells assessed as cell growth at 5X10'-6 M after 48 hrs by sulforhodamine B assay; conditions: BT-549, 48 h, read-out: Activity
# [18] = test system: Malme-3M; test: Growth inhibition of human MALME-3M cells assessed as cell growth at 5X10'-8 M after 48 hrs by sulforhodamine B assay; conditions: read-out: Activity
# [19] = test system: SK-MEL-2; test: Growth inhibition of human SK-MEL-2 cells assessed as cell growth at 5X10'-9 M after 48 hrs by sulforhodamine B assay; conditions: SK-MEL-2, 48 h, read-out: Activity
# [20] = test system: OVCAR-3; test: Growth inhibition of human OVCAR3 cells assessed as cell growth at 5X10'-8 M after 48 hrs by sulforhodamine B assay; conditions: OVCAR-3, 48 h, read-out: Activity
# [21] = test system: NCI-H23; test: Growth inhibition of human NCI-H23 cells assessed as cell growth at 5X10'-7 M after 48 hrs by sulforhodamine B assay; conditions: NCI-H23, 48 h, read-out: Activity
# [22] = test system: CAKI-1; test: Growth inhibition of human CAKI-1 cells assessed as cell growth at 5X10'-9 M after 48 hrs by sulforhodamine B assay; conditions: CAKI-1, 48 h, read-out: Activity
# [23] = test system: PC-3; test: Growth inhibition of human PC3 cells assessed as cell growth at 5X10'-9 M after 48 hrs by sulforhodamine B assay; conditions: PC-3, 48 h, read-out: Activity
# [24] = test system: OVCAR-8; test: Growth inhibition of human OVCAR8 cells assessed as cell growth at 5X10'-7 M after 48 hrs by sulforhodamine B assay; conditions: OVCAR-8, 48 h, read-out: Activity
# [25] = test system: MOLT-4; test: Growth inhibition of human MOLT4 cells assessed as cell growth at 5X10'-6 M after 48 hrs by sulforhodamine B assay; conditions: MOLT-4, 48 h, read-out: Activity
# [26] = test system: HL-60(TB); test: Growth inhibition of human HL-60(TB) cells assessed as cell growth at 5X10'-9 M after 48 hrs by sulforhodamine B assay; conditions: HL-60, 48 h, read-out: Activity
# [27] = Growth inhibition of human Hs 578T cells assessed as cell growth at 5X10'-9 M after 48 hrs by sulforhodamine B assay; conditions: read-out: Activity
# [28] = test system: SF-539; test: Growth inhibition of human SF539 cells assessed as cell growth at 5X10'-7 M after 48 hrs by sulforhodamine B assay; conditions: SF-539, 48 h, read-out: Activity
# [29] = test system: NCI-H522; test: Growth inhibition of human NCI-H522 cells assessed as cell growth at 5X10'-7 M after 48 hrs by sulforhodamine B assay; conditions: NCI-H522, 48 h, read-out: Activity
# [30] = test system: HCT-15; test: Growth inhibition of human HCT15 cells assessed as cell growth at 5X10'-7 M after 48 hrs by sulforhodamine B assay; conditions: HCT-15, 48 h, read-out: Activity
# [31] = test system: T47D; test: Growth inhibition of human T47D cells assessed as cell growth at 5X10'-8 M after 48 hrs by sulforhodamine B assay; conditions: read-out: Activity
# [32] = test system: ACHN; test: Growth inhibition of human ACHN cells assessed as cell growth at 5X10'-9 M after 48 hrs by sulforhodamine B assay; conditions: read-out: Activity
# [33] = Growth inhibition of human Hs 578T cells assessed as cell growth at 5X10'-7 M after 48 hrs by sulforhodamine B assay; conditions: read-out: Activity
# [34] = test system: MDA-MB-468; test: Growth inhibition of human MDA-MB-468 cells assessed as cell growth at 5X10'-5 M after 48 hrs by sulforhodamine B assay; conditions: MDA-MB-468, 48 h, read-out: Activity
# [35] = test system: SW-620; test: Growth inhibition of human SW620 cells assessed as cell growth at 5X10'-5 M after 48 hrs by sulforhodamine B assay; conditions: SW-620, 48 h, read-out: Activity
# [36] = test system: OVCAR-8; test: Growth inhibition of human OVCAR8 cells assessed as cell growth at 5X10'-9 M after 48 hrs by sulforhodamine B assay; conditions: OVCAR-8, 48 h, read-out: Activity
# [37] = Growth inhibition of human NCI-ADR-RES cells assessed as cell growth at 5X10'-7 M after 48 hrs by sulforhodamine B assay; conditions: read-out: Activity
structure (smiles),measurement,setting,value
COc1cc(-c2nn(-c3cccc(NC(=O)c4cccc(C(F)(F)F)c4)c3)cc2-c2ccncc2)ccc1Cl,growth at 0.05 µM,[1],95%
same,growth at 0.005 µM,[2],95%
same,growth at 0.005 µM,[3],82%
same,growth at 50 µM,[4],29%
same,growth at 50 µM,[5],-4%
same,growth at 5 µM,[6],-21%
same,growth at 5 µM,[7],28%
same,growth at 50 µM,[8],-4%
same,growth at 50 µM,[9],-4%
same,growth at 0.05 µM,[10],94%
same,growth at 0.5 µM,[11],89%
same,growth at 0.005 µM,[12],78%
same,growth at 50 µM,[13],7%
same,growth at 0.005 µM,[14],94%
same,growth at 0.5 µM,[15],97%
same,growth at 0.005 µM,[16],98%
same,growth at 5 µM,[17],34%
same,growth at 0.05 µM,[18],82%
same,growth at 0.005 µM,[19],96%
same,growth at 0.05 µM,[20],101%
same,growth at 0.5 µM,[21],86%
same,growth at 0.005 µM,[22],94%
same,growth at 0.005 µM,[23],98%
same,growth at 0.5 µM,[24],91%
same,growth at 5 µM,[25],23%
same,growth at 0.005 µM,[26],89%
same,growth at 0.005 µM,[27],91%
same,growth at 0.5 µM,[28],81%
same,growth at 0.5 µM,[29],79%
same,growth at 0.5 µM,[30],84%
same,growth at 0.05 µM,[31],91%
same,growth at 0.005 µM,[32],103%
same,growth at 0.5 µM,[33],74%
same,growth at 50 µM,[34],-32%
same,growth at 50 µM,[35],19%
same,growth at 0.005 µM,[36],97%
same,growth at 0.5 µM,[37],86%
O=C(Nc1cccc(-n2cc(-c3ccncc3)c(-c3ccc(Cl)c(O)c3)n2)c1)Nc1cc(C(F)(F)F)cc(C(F)(F)F)c1,growth at 0.05 µM,[1],90%
same,growth at 0.005 µM,[2],100%
same,growth at 0.005 µM,[3],97%
same,growth at 50 µM,[4],-74%
same,growth at 50 µM,[5],-97%
same,growth at 5 µM,[6],-4%
same,growth at 5 µM,[7],-27%
same,growth at 50 µM,[8],-90%
same,growth at 50 µM,[9],5%
same,growth at 0.05 µM,[10],94%
same,growth at 0.5 µM,[11],51%
same,growth at 0.005 µM,[12],79%
same,growth at 50 µM,[13],-85%
same,growth at 0.005 µM,[14],98%
same,growth at 0.5 µM,[15],96%
same,growth at 0.005 µM,[16],98%
same,growth at 5 µM,[17],-65%
same,growth at 0.05 µM,[18],100%
same,growth at 0.005 µM,[19],112%
same,growth at 0.05 µM,[20],111%
same,growth at 0.5 µM,[21],80%
same,growth at 0.005 µM,[22],97%
same,growth at 0.005 µM,[23],90%
same,growth at 0.5 µM,[24],52%
same,growth at 5 µM,[25],-5%
same,growth at 0.005 µM,[26],115%
same,growth at 0.005 µM,[27],97%
same,growth at 0.5 µM,[28],82%
same,growth at 0.5 µM,[29],65%
same,growth at 0.5 µM,[30],49%
same,growth at 0.05 µM,[31],98%
same,growth at 0.005 µM,[32],103%
same,growth at 0.5 µM,[33],82%
same,growth at 50 µM,[34],-55%
same,growth at 50 µM,[35],-75%
same,growth at 0.005 µM,[36],101%
same,growth at 0.5 µM,[37],74%
O=C(Nc1cccc(-n2cc(-c3ccncc3)c(-c3ccc(Cl)c(O)c3)n2)c1)c1ccc(N2CCOCC2)c(C(F)(F)F)c1,growth at 0.05 µM,[1],98%
same,growth at 0.005 µM,[2],94%
same,growth at 0.005 µM,[3],88%
same,growth at 50 µM,[4],46%
same,growth at 50 µM,[5],26%
same,growth at 5 µM,[6],92%
same,growth at 5 µM,[7],51%
same,growth at 50 µM,[8],16%
same,growth at 50 µM,[9],-14%
same,growth at 0.05 µM,[10],93%
same,growth at 0.5 µM,[11],85%
same,growth at 0.005 µM,[12],92%
same,growth at 50 µM,[13],1%
same,growth at 0.005 µM,[14],90%
same,growth at 0.5 µM,[15],117%
same,growth at 0.005 µM,[16],94%
same,growth at 5 µM,[17],70%
same,growth at 0.05 µM,[18],87%
same,growth at 0.005 µM,[19],96%
same,growth at 0.05 µM,[20],100%
same,growth at 0.5 µM,[21],96%
same,growth at 0.005 µM,[22],93%
same,growth at 0.005 µM,[23],100%
same,growth at 0.5 µM,[24],86%
same,growth at 5 µM,[25],32%
same,growth at 0.005 µM,[26],98%
same,growth at 0.005 µM,[27],92%
same,growth at 0.5 µM,[28],73%
same,growth at 0.5 µM,[29],92%
same,growth at 0.5 µM,[30],91%
same,growth at 0.05 µM,[31],101%
same,growth at 0.005 µM,[32],102%
same,growth at 0.5 µM,[33],84%
same,growth at 50 µM,[34],-24%
same,growth at 50 µM,[35],-31%
same,growth at 0.005 µM,[36],101%
same,growth at 0.5 µM,[37],96%
